# Measurements reported in US20090047408A1, “Method for Improving Absorbability of Epigallocatechin Gallate, Foods, Drinks and Food/Drink Materials Using the Same and Method for Producing the Same” (ITO EN, LTD, priority 2005, published 2009).
# Columns and labels:
# Type in all cases: in vivo
# [1] = Changes in blood concentration over time of orally ingested EGCg and caffeine in humans; conditions: oral ingestion
# [2] = Absorbability of EGCg in rats: blood EGCg level after oral administration of caffeine and EGCg solutions (chemiluminescence-HPLC); conditions: average of six rats
# Protocol: Teavigo, manufactured by DSM Nutritional Products) in 1 ml of water were prepared. In accordance with Experimental plots 1 to 7 shown in Table 1, the solution of caffeine and the solution of EGCg were orally administered to rats. After 60 minutes from the administration, the blood EGCG level in rats was measured by chemiluminescence-HPLC. The measurement was subjected by using six rats for each Experimental plot. The relationship between the C/E ratio and the blood EGCg level is graphically represented in accordance with Table 1, which is shown as FIG. 1. […] When the C/E ratio is lower or higher than that, the blood EGCg level is reduced.
# [3] = Absorbability of EGCg in humans: blood EGCg level after drinking drinks A to C (chemiluminescence-HPLC)
# Protocol: Caffeine formulation (manufactured by […] Pharmaceutical Co., Ltd.), EGCg formulation (content of EGCg: 90% or more, trade name: Teavigo, manufactured by DSM Nutritional Products), ascorbic acid and citric acid were added in the amounts shown in Table 2, respectively, to 190 ml of water, which were dissolved. Thereafter, each of the resulting mixtures was poured into a can, respectively, which was sealed and sterilized by heat and then drinks A to C were prepared. […] Each of subjects drank one of the drinks […] minutes after the drinking was measured by chemiluminescence-HPLC. The measurement was subjected in three subjects for each drink. The relationship between the C/E ratio and the blood EGCg level is graphically represented in accordance with Table 2, which is shown as FIG. 2. According to Table 2, the blood EGCg level of subjects is the highest in the case that the drink B having the C/E ratio of 0.4 has been taken by the subjects, and the blood EGCg level falls in either case where the C/E ratio is lower or higher than that.
smiles,measurement,setting,value
"O=C(O[C@@H]1Cc2c(O)cc(O)cc2O[C@@H]1c1cc(O)c(O)c(O)c1)c1cc(O)c(O)c(O)c1 [EGCg, epigallocatechin gallate]",Time at which blood concentration reaches a maximum value,[1],about 1.5 hours
same,Blood EGCg level,"[2]; Exp. plot 1: rats, caffeine 0 mg + EGCg 30 mg, C/E ratio 0, 60 minutes after administration",229 pmol/mL
same,Blood EGCg level,"[2]; Exp. plot 2: rats, caffeine 3 mg + EGCg 30 mg, C/E ratio 0.1, 60 minutes after administration",243 pmol/mL
same,Blood EGCg level,"[2]; Exp. plot 3: rats, caffeine 6 mg + EGCg 30 mg, C/E ratio 0.2, 60 minutes after administration",270 pmol/mL
same,Blood EGCg level,"[2]; Exp. plot 4: rats, caffeine 15 mg + EGCg 30 mg, C/E ratio 0.5, 60 minutes after administration",221 pmol/mL
same,Blood EGCg level,"[2]; Exp. plot 5: rats, caffeine 30 mg + EGCg 30 mg, C/E ratio 1.0, 60 minutes after administration",153 pmol/mL
same,Blood EGCg level,"[2]; Exp. plot 6: rats, caffeine 45 mg + EGCg 30 mg, C/E ratio 1.5, 60 minutes after administration",90 pmol/mL
same,Blood EGCg level,"[2]; Exp. plot 7: rats, caffeine 65 mg + EGCg 30 mg, C/E ratio 2.2, 60 minutes after administration",94 pmol/mL
same,Absorbability of EGCg relative to EGCg alone,[3]; C/E ratio 0.18 to 0.70,≥ 1.7 times
same,Absorbability of EGCg relative to normal green tea infusion,[3]; C/E ratio 0.18 to 0.70,≥ 1.1 times
same,Absorbability of EGCg relative to EGCg alone,[3]; C/E ratio 0.20 to 0.60,≥ 1.75 times
same,Absorbability of EGCg relative to normal green tea infusion,[3]; C/E ratio 0.20 to 0.60,≥ 1.15 times
same,Increase of absorbability of EGCg relative to normal tea,"[3]; optimized C/E ratio, maximum",up to 1.2 times
"Cn1c(=O)c2c(ncn2C)n(C)c1=O [caffeine, reference compound]",Time at which blood concentration reaches a maximum value,[1],about 1.5 hours
